Measured values as given in patent US10633332B2, “Guanidine compounds for removal of oxyanions from aqueous solutions and for carbon dioxide capture” (UT-Battelle, LLC, priority 2010, dated 2020).
Where “and” joins values, the source holds several entries; their conditions need not be identical. Identical values can stand only once. Like-named read-outs stand apart in the source and are kept apart here. Marks after values point to notes of the source that are not given here. Each block holds one compound with its values, some of them ahead of it.

Key:
[1] = Sulfate separation from seawater (35S radiotracer, β liquid scintillation counting); conditions: for Amount of SO4^2− removed / [SO4^2−] left: initial sulfate 30 mM; for % Sulfate Removed / Sulfate Left: initial sulfate 30 mmol/L
Procedure: The seawater used in the experiment was collected from the gulf stream in the Atlantic Ocean. Prior to use, the water was pre-filtered to remove suspended particulates and small organisms. […] The sulfate concentration in seawater was estimated to be about 30 mM by titration with BaCl2. […] A volume of 0.75 mL of each of these solutions was pipetted into a 2 mL Eppendorf microcentrifuge tube, and 0.75 mL of seawater pre-spiked with the ^35S radiotracer was added. The resulting solution mixtures were mixed for 24 hours using a rotating wheel set at 60 rpm in a temperature-controlled air-box set at 25±0.2° C. […] The radiolabeled ^35S radiotracer is a β emitter, thereby allowing determination of the sulfate concentration of a solution spiked with a known amount of Na2^35SO4 by β liquid scintillation counting. The seawater solutions were pre-spiked with […] of the ^35S radiotracer, as above. […] The volume of the spike solution was determined by factoring in the original activity of the solution and correcting for the short half-life of the ^35S radiotracer. The Na2^35SO4 solution had completed 3.8 half-lives before use in this experiment. […] The resulting mixtures were vigorously shaken to allow for complete dissolution and dispersion of the salt solutions. The samples were then placed on the analyzer and counted for 30 minutes after allowing 60 minutes for dark-adaption.

[2] = Sulfate removal from a calcium sulfate suspension (CaSO4 dissolution cycle); conditions: overnight, room temperature, pH 6-7, powder X-ray diffraction
Procedure: An example of sulfate removal from a calcium sulfate suspension is shown schematically in FIG. 5. In the first step, the initial CaSO4 solid is treated with an aqueous chloride salt of the compound that results in crystallization of the guanidinium sulfate salt and release of the calcium ions in solution, as soluble CaCl2. In the second step, the insoluble guanidinium sulfate salt is treated with sodium hydroxide base to neutralize the guanidinium cations and release the sulfate ions in solution, as soluble Na2SO4. The resulting solid guanidine compound is then recycled and converted back into guanidinium chloride with aqueous HCl, so it can be reused in another CaSO4 dissolution cycle. Thus, the entire process is done in water (no organic solvents used), and the only chemicals consumed in the overall process are NaOH and HCl, resulting in two aqueous waste streams consisting of calcium chloride and sodium sulfate. The unique aspect of this invention is the employment of a crystallization process to achieve dissolution of CaSO4. Also, this approach is based on anion chelation by guanidinium groups rather than the more common metal chelation, which may be prone to interference from other metals in solution. […] Finally, the recovered BBIG was converted back into the chloride salt by treatment with aqueous hydrochloric acid and recycled for another CaSO4 dissolution cycle.

[3] = Aqueous solubility of BBIG salts (gravimetric / UV spectroscopy); conditions: 25 °C, water, thermodynamic from solid
Procedure: The solubility of BBIG-Cl was determined gravimetrically. A saturated solution of BBIG-Cl was obtained by placing an excess of the salt in a 15 mL polypropylene centrifuge tube and adding 2 mL of deionized water (milli-Q). […] One mL of the saturated salt solution was then pipetted into a pre-weighed glass vial containing a magnetic stir bar. The water was then removed under reduced pressure and gentle heating (˜50° C.) while stirring. The resulting solid was left under vacuum overnight to ensure complete removal of the water, prior to weighing the vial.
These solutions were then diluted to ensure the concentrations of the BBIG di-cation were in the concentration range of the calibration curve.

[4] = cited from earlier work; for reaction rate of CO2 with the amino acid: 25° C., expected
[5] = literature value; cited from earlier work
[6] = CO2 release and PyBIG regeneration using concentrated solar power; assay type: physicochemical; conditions: for Δm: 38 mg sample
Procedure: Carbon dioxide release and regeneration of PyBIG using concentrated solar power: The CO2 release from the PyBIGH2(CO3)(H2O)4 crystals was carried out by solar heating with a solar oven. The oven consists of a vacuum-insulated borosilicate tube placed in the focal point of two adjustable parabolic reflectors. The temperature inside the tube was monitored with a thermocouple. The PyBIGH2(CO3)(H2O)4 samples (0.038 g, 0.1 mmol) were loaded in 1 mL glass vials, which were placed inside the oven tube. The solar oven was then placed in the full sun and oriented to capture the maximum amount of sunlight. The temperature was ramped to the targeted values of 120° C., 140° C., 150° C., or 160° C. as fast as possible (typically within 3 to 10 minutes), then held within ±2° C. by intermittently moving the oven out of the sun, or/and closing the reflectors. The samples were subsequently removed from the tube, allowed to cool to room temperature, and weighed to determine their mass loss. The resulting yellow solids were analyzed by FTIR to confirm the disappearance of the carbonate and water peaks.
However, considering this transformation is highly endothermic, the possibility of using concentrated solar power to render the process more energy sustainable was explored. For the initial small-scale proof of concept, a solar oven (FIG. 6) was used to heat the PyBIGH2(CO3)(H2O)4 samples (38 mg, 0.1 mmol) at four different temperatures ranging between 120 and 160° C., monitoring the extent of the reactions by the samples' weight loss (Table 7 below). FTIR analyses also corroborated the release of CO2, most evidently noticeable by the disappearance of the strong peak at 1361 cm^−1 corresponding to the stretching mode of the carbonate anion.

[7] = Differential scanning calorimetry of CO2 release; assay type: physicochemical; conditions: DSC, all peaks between 80 and 140° C. integrated
Source text: Although the CO2 desorption could theoretically be achieved by running reactions 1-6 in reverse order according to the principle of microscopic reversibility, in reality it would not be feasible as reaction 4 is practically irreversible. Such an approach would also defeat the purpose of avoiding heating the aqueous sorbent. Instead, once the loading is complete, the crystalline PyBIGH2(CO3)(H2O)4 is removed from solution and heated in the solid state to release the CO2 gas and the water vapors. Given the completely different conditions involved, such a gas-solid process must have different energetics compared to the gas-liquid-solid process involved in CO2 absorption. In order to determine the enthalpy of CO2 release, differential scanning calorimetry (DSC) was employed. DSC is a common technique used in thermal analysis of solids. […] As the enthalpy of vaporization for water is 40.65 kJ/mol, more than 90% of the enthalpy of desorption is used for water evaporation. This represents a significant energy penalty that must be accounted for, and which encourages the use of renewable sources of energy, such as concentrated solar power (vide infra), to make the overall DAC process energy more sustainable.

[8] = Carbonate/bicarbonate CO2 capture cycle: crystallization from 1 M NaHCO3
Source text: Finally, thermal decomposition of PyBIGH2(CO3)(H2O)4 regenerates the PyBIG compound and releases the CO2. […] The resulting mixture was filtered, and the separated crystalline solid was confirmed by PXRD and FTIR to be PyBIGH2(CO3)(H2O)4. […] The entire carbonate separation cycle was run three times, with observed yields for PyBIGH2(CO3)(H2O)4 crystallization of 99.0±0.4%, 97.2±0.6%, and 91.4±0.4%, corresponding to the first, second, and third cycle, respectively. The regeneration of the PyBIG compound was nearly quantitative in each cycle.

[9] = aqueous, ˜10 mM
[10] = Thermodynamic analysis: reaction enthalpies (variable-temperature solubility, pKa, van't Hoff)

SMILES: Cl.Cl.N=C(N)N/N=C/c1ccc(/C=N/NC(=N)N)cc1 [Compound 1]
degree of separation of sulfate from seawater [1]: very high degrees of separation | Amount of SO4^2− removed ([1]; 1 equiv BBIG): 88% | [SO4^2−] left ([1]; 1 equiv BBIG): 3.5 mM | Amount of SO4^2− removed ([1]; 1.1 equiv BBIG): 95% | [SO4^2−] left ([1]; 1.1 equiv BBIG): 1.6 mM | Amount of SO4^2− removed ([1]; 1.5 equiv BBIG): 99% | [SO4^2−] left ([1]; 1.5 equiv BBIG): 0.3 mM | Amount of SO4^2− removed ([1]; 2 equiv BBIG): 99% | [SO4^2−] left ([1]; 2 equiv BBIG): 0.3 mM | % Sulfate Removed ([1]; compound 15 mmol/L): 40.8% and 41.8% | Sulfate Left ([1]; compound 15 mmol/L): 1706 mg/L and 1676 mg/L | % Sulfate Removed ([1]; compound 30 mmol/L): 88.7% and 88.0% | Sulfate Left ([1]; compound 30 mmol/L): 326 mg/L and 347 mg/L | % Sulfate Removed ([1]; compound 33 mmol/L): 95.6% and 93.6% | Sulfate Left ([1]; compound 33 mmol/L): 128 mg/L and 185 mg/L | % Sulfate Removed ([1]; compound 45 mmol/L): 99.0% and 98.9% | Sulfate Left ([1]; compound 45 mmol/L): 28 mg/L and 30 mg/L | % Sulfate Removed ([1]; compound 60 mmol/L): 98.9% | Sulfate Left ([1]; compound 60 mmol/L): 31 mg/L | conversion of solid CaSO4(H2O)2 into crystalline BBIG-SO4(H2O)2 [2]: complete conversion | solubility at 48 h [3]: 63 mM

SMILES: Cl.Cl.N=C(N)N/N=C/c1cccc(/C=N/NC(=N)N)n1 [Compound 2]
degree of separation of sulfate from seawater [1]: very high degrees of separation | % Sulfate Removed ([1]; compound 15 mmol/L): 48.41% and 48.57% | Sulfate Left ([1]; compound 15 mmol/L): 1487 mg/L and 1482 mg/L | % Sulfate Removed ([1]; compound 30 mmol/L): 93.28% and 94.41% | Sulfate Left ([1]; compound 30 mmol/L): 194 mg/L and 161 mg/L | % Sulfate Removed ([1]; compound 33 mmol/L): 99.72% and 99.60% | Sulfate Left ([1]; compound 33 mmol/L): 8 mg/L and 12 mg/L | % Sulfate Removed ([1]; compound 45 mmol/L): 99.94% | Sulfate Left ([1]; compound 45 mmol/L): 1.7 mg/L | % Sulfate Removed ([1]; compound 60 mmol/L): 99.95% | Sulfate Left ([1]; compound 60 mmol/L): 1.5 mg/L

SMILES: NCC(=O)O [Glycine, glycine]
reaction rate of CO2 with the amino acid [4]: 13.9 kM/s | pKa [5]: 9.5

SMILES: [Na+].[OH-] [NaOH]
flux of CO2 absorbed from air ([4]; 1 M solution): around 30 μmol/m2/s

Δm/mi ([6]; 120° C., 30 min): −31.6% | Δm ([6]; 120° C., 30 min): -12 mg | Δm/mi ([6]; 140° C., 10 min): −34.2% | Δm ([6]; 140° C., 10 min): -13 mg | Δm/mi ([6]; 150° C., 5 min): −31.6% | Δm ([6]; 150° C., 5 min): -12 mg | Δm/mi ([6]; 160° C., 2 min): −36.8% | Δm ([6]; 160° C., 2 min): -14 mg | overall enthalpy of desorption [7]: 53.3 ± 0.96 kcal/mol | temperature of heating at which CO2 is released (heating the carbonate crystals): 80-120 °C | decomposition completion (isothermal TGA at 80° C., after 300 minutes): 77% | time to complete loss of carbon dioxide and water (isothermal TGA at 100° C.): 150 min | time to complete loss of carbon dioxide and water (isothermal TGA at 120° C.): 60 min | mass loss (oven, one hour at 120° C.): 34.3% | mass loss (temperature-ramped TGA, between 65 and 140° C.): 35.2%
SMILES: N=C(N)NN=Cc1cccc(C=NNC(=N)N)n1.O.O.O.O.O=C(O)O [PyBIGH2(CO3)(H2O)4]
yield of PyBIGH2(CO3)(H2O)4 crystallization ([8]; first cycle, 1 M NaHCO3, room temperature, four hours): 99.0±0.4% | yield of PyBIGH2(CO3)(H2O)4 crystallization ([8]; second cycle): 97.2±0.6% | yield of PyBIGH2(CO3)(H2O)4 crystallization ([8]; third cycle): 91.4±0.4%

SMILES: N=C(N)N/N=C/c1cccc(/C=N/NC(=N)N)n1 [PyBIG]
pH of saturated solution [9]: about 10 | no decomposition of the regenerated compound up to (TGA-MS): 190 °C | ΔH reaction 1 (PyBIG dissolution) ([10]; This study): 10.2 kcal/mol | ΔH reaction 6 (PyBIGH2(CO3)(H2O)4 crystallization) ([10]; This study): -11.2 kcal/mol | ΔH reaction 2 (PyBIG protonation by water) ([10]; This study, composed from protonation enthalpies and ionization of water): 43.6^a kJ/mol | overall enthalpy of CO2 absorption ([10]; sum of reactions 1-6): -16.9 kcal/mol

SMILES: CNCC(=O)O [Sarcosine, sarcosine]
reaction rate of CO2 with the amino acid [4]: 18.6 kM/s
